Data taken from patent publication US9464092B2, “Transient protection of normal cells during chemotherapy” (G1 Therapeutics, Inc., priority 2013, dated 2016).

Tests used:
[1] = test system: human renal proximal tubule cells; experiment: DNA cell cycle analysis in human renal proximal tubule cells; assay type: cell-based; details: 24 hours, dose dependent
Excerpt: (§1) To test the ability of Cdk4/6 inhibitors to induce a clean G1-arrest in non-hematopoietic cells, G1 arrest was examined in human renal proximal tubule cells. […] At the conclusion of the experiment, cells were harvested, fixed, and stained with propidium iodide (a DNA intercalator), which fluoresces strongly red (emission maximum 637 nm) when excited by 488 nm light. Samples were run on Dako Cyan flow cytometer.

[2] = test system: blood cell counts; experiment: 5FU-induced myelosuppression, repeated cycles; assay type: in vivo, C57Bl/6 mice; details: 150 mg/kg oral before 5FU 150 mg/kg i.p., every 21 days for 3 cycles
Excerpt: This was repeated every 21 days for 3 cycles. Blood samples were taken for hematology analysis on Day 10 of Cycles 1-3.

[3] = test system: WM2664 cells (CDK4/6-dependent cell line); experiment: Cell cycle arrest by propidium iodide flow cytometry, WM2664; assay type: cell-based; details: 300 nM, 24 hours
Excerpt: (§2) To test the ability of Cdk4/6 inhibitors to induce a clean G1-arrest, a cell based screening method was used consisting of two Cdk4/6-dependent cell lines (tHS68 and WM2664; Rb-positive) and one Cdk4/6-independent (A2058; Rb-negative) cell line. […] At the conclusion of the experiment, cells were harvested, fixed, and stained with propidium iodide (a DNA intercalator), which fluoresces strongly red (emission maximum 637 nm) when excited by 488 nm light. Samples were run on Dako Cyan flow cytometer and >10,000 events were collected for each sample. Data were analyzed using FlowJo 2.2 software developed by TreeStar, Inc.

[4] = test system: hematopoietic cells (bone marrow); experiment: EdU incorporation in hematopoietic cell lineages of C57Bl/6 mice; assay type: in vivo; details: 150 mg/kg oral gavage, 12 hours
Method: Ten-hours later, all mice were given a single i.p. injection of 100 mcg EdU (5-ethynyl-2′-deoxyuridine) to label cells in S-phase of the cell cycle. All treated mice were euthanized 2 hours after EdU injection, bone marrow cells were harvested and processed for flow cytometric analysis of EdU-incorporation (FIG. 13).

[5] = test system: blood cell counts; experiment: 5FU-induced myelosuppression, single dose; assay type: in vivo, FVB/n female mice; details: 150 mg/kg oral, 30 minutes before 5FU 150 mg/kg i.p.
Method: Complete blood cell counts were measured every two days starting on day six.

[6] = test system: 456 (395 non-mutant) kinases; experiment: DiscoveRx KINOMEscan kinase profiling; assay type: binding; details: 1000 nM
Method: The compound was screened using a single concentration of 1000 nM (>1000 times the 1050 on Cdk4). Results from this screen confirmed the high potency against Cdk4 and high selectivity versus Cdk2.

[7] = test system: A2058 cells (CDK4/6-independent cell line); experiment: Cell cycle arrest by propidium iodide flow cytometry, A2058; assay type: cell-based, human; details: 300 nM, 24 hours
Excerpt: as §2

[8] = test system: HSPCs (bone marrow); experiment: HSPC proliferation in bone marrow by EdU incorporation after oral gavage; assay type: in vivo, mice
Method: Mice were then sacrificed at the indicated times (0, 12, 24, 36, or 48 hours following compound administration), and bone marrow was harvested (n=3 mice per time point), as previously described (Johnson et al. J. Clin. Invest. (2010) 120(7), 2528-2536). Four hours before the bone marrow was harvested, mice were treated with 100 μg of EdU by intraperitoneal injection (Invitrogen). Bone marrow mononuclear cells were harvested and immunophenotyped using previously described methods and percent EdU positive cells were then determined (Johnson et al. J. Clin. Invest. (2010) 120(7), 2528-2536). In brief, HSPCs were identified by expression of lineage markers (Lin-), Sca1 (S+), and c-Kit (K+).
Four hours before animals were sacrificed and the bone marrow was harvested, mice were treated with 100 μg of EdU by intraperitoneal injection. Three mice per group were sacrificed at 12 hours and the remaining three animals per group were sacrificed at 24 hours. Results are shown in FIG. 6A as the ratio of EdU positive cells for treated animals at 12 or 24 hour time points compared to control.
Further experiments were completed with Compound T examining dose response and longer periods of compound treatment. […] […].
Both compounds were administered at 150 mg/kg by oral gavage. One hour prior to harvesting bone marrow, EdU was IP injected to label cycling cells. Bone marrow was harvested at 12, 24, 36, and 48 hours after compound treatment and the percentage of EdU positive HSPC cells was determined at each time point.

[9] = test system: human renal proximal tubule cells; experiment: Cell cycle analysis of renal proximal tubule cells with etoposide or cisplatin; assay type: cell-based; details: 10-1000 nM with etoposide or cisplatin
Method: as §1, with “The” for “To test the”, “protect” for “induce a clean G1-arrest in non-hematopoietic cells, G1 arrest was examined in”, “cells from chemotherapy induced DNA damage was analyzed using etoposide and cisplatin.” for “cells.”

[10] = test system: human renal proximal tubule cells; experiment: γ-H2AX assay in renal proximal tubule cells with cisplatin; assay type: cell-based; details: 10 nM-1 uM with 25 uM cisplatin
Method: Normal renal proximal tubule epithelial cells were obtained from American Type Culture Collection (ATCC, Manassas, Va.). Cells were grown in an incubator at 37° C. in a humidified atmosphere of 5% CO2 in Renal Epithelial Cell Basal Media (ATCC) supplemented with Renal Epithelial Cell Growth Kit (ATCC) in 37° C. humidified incubator. […] For the γ-H2AX assay, cells were fixed, permeabilized, and stained with anti-γ-H2AX as per the γ-H2AX Flow Kit (Millipore) and quantitated by flow cytometry. Data was analyzed using FlowJo 2.2 software developed by TreeStar, Inc. Caspase 3/7 activation was measured using the Caspase-Glo 3/7 Assay System (Promega, Madison, Wis.) by following the manufacturer's instructions.

[11] = test system: telomerized human diploid fibroblasts (tHDFs); experiment: γ-H2AX DNA damage assay in tHDF cells with chemotherapy; assay type: cell-based; details: pretreatment before carboplatin, doxorubicin, etoposide, camptothecin or paclitaxel
Method: Cell survival was determined by Cell TiterGlo assay per manufacturer's recommendations. For both γ-H2AX and caspase 3/7 assays, cells were plated and allowed to become adherent for 24 hours. […] For γ-H2AX, cells were harvested for analysis 8 hours after chemotherapy exposure. For the γ-H2AX assay, cells were fixed, permeabilized, and stained with anti-γ-H2AX as per the γ-H2AX Flow Kit (Millipore) and quantitated by flow cytometry. Data was analyzed using FlowJo 2.2 software developed by TreeStar, Inc. For the in vitro caspase 3/7 assay, cells were harvested 24 hours post chemotherapy treatment. Caspase 3/7 activation was measured using the Caspase-Glo® 3/7 Assay System (Promega) per manufacturer's recommendations.

CN1CCN(c2ccc(Nc3ncc4cc5n(c4n3)C3(CCCCC3)CNC5=O)nc2)CC1 [Compound T]
G1 cell cycle arrest [1]: robust G1 cell cycle arrest
myelosuppression after repeated 5FU cycles [2]: reduced the myelosuppression on Day 10 of the third cycle
effect on S-phase peak [3]: causes a loss of the S-phase peak
inhibition of hematopoietic stem cells (HSC), EdU [4]: 74%
inhibition of multipotent progenitors (MPP), EdU [4]: 90%
reduction in EdU+ cell frequency, B cell progenitors [4]: > 80%
reduction in EdU+ cell frequency, Mac1+G1+ myeloid cells [4]: 46%
reduction in EdU+ cell frequency, T cell progenitors [4]: > 99%
reduction in EdU+ cell frequency, Ter119+ erythroid cells [4]: 58%
reduction in EdU+ cell frequency, lineage restricted myeloid (CMP, GMP and MEP) and lymphoid progenitors (CLP) [4]: 76-92%
reduction of EdU+ cell frequency in unfractionated whole bone marrow cells [4]: ~70%
blood cell counts on day 14 after 5FU [5]: significant protection of each cell type at Day 14
recovery of hematopoietic cell lineages after 5FU [5]: more rapid recovery
number of 395 non-mutant kinases inhibited ([6]; inhibitory threshold of 65%): 92
percent of 395 non-mutant kinases inhibited ([6]; inhibitory threshold of 65%): 23.3%
number of 395 non-mutant kinases inhibited ([6]; inhibitory threshold of 90%): 31
percent of 395 non-mutant kinases inhibited ([6]; inhibitory threshold of 90%): 7.8%
number of 395 non-mutant kinases inhibited ([6]; inhibitory threshold of 99%): 6
percent of 395 non-mutant kinases inhibited ([6]; inhibitory threshold of 99%): 1.5%
effect on S-phase peak [7]: does not cause a loss of the S-phase peak
EdU incorporation into HSPCs at 12 and 24 hours compared to control ([8]; 150 mg/kg oral gavage): reduction in EdU incorporation at 12 hours which was starting to return to normal at 24 hours
G1-arrest of bone marrow stem cells (HSPC) ([8]; oral gavage, mice): dose dependent, transient, and reversible G1-arrest
protection from chemotherapy induced DNA damage (cell cycle distribution) [9]: protects renal proximal tubule epithelial cells from chemotherapy induced DNA damage
DNA damage as measured by γ-H2AX formation [10]: attenuated DNA damage
DNA damage as measured by γ-H2AX formation [11]: attenuated DNA damage
